Activity calls are given as the source filed them. No rule for the calls is given here.
System: CHOP reporter cell assay, percent of control
Test: CHOP reporter inhibitor potency, dose response, cell-based (AID 504322);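 also: CHO cells carrying a CHOP reporter stimulated with tunicamycin to induce ER stress; potency is for inhibition of the stress-induced reporter signal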

Row | SMILES | IC50
1 | CC1=CCC[C@@H]2[C@@](C)(CC/C(C)=C/C(=O)O)[C@H](C)CC[C@@]12C | 9.68 µM (inactive)
2 | C=C(C)COc1ccc(-c2n[nH]c(C)c2-c2ccc(Br)cc2)c(O)c1 | 9.53 µM (inactive)
3 | Cc1cc(/C=c2/sc3nc4ccccc4n3c2=O)c(C)n1-c1ccccn1 | < 0.16 µM
4 | CCCCCCCCCCCCCCCC[n+]1cccc2ccccc21 | 0.41 µM
5 | O=C(CCl)Nc1cc(-c2ccccc2)nn1-c1ccccc1 | 9.78 µM (inactive)
6 | O=C(OCn1ncc(Cl)c(Cl)c1=O)c1cccc(C(F)(F)F)c1 | 4.44 µM
7 | COc1ccc(Cn2c(C)c(C)c(C#N)c2NC(=O)Nc2ccc(Cl)cc2)cc1 | 7.29 µM (inactive)
8 | CCOC(=O)N1CCC(n2c(=S)[nH]c3cc(OCC)c(OCC)cc3c2=O)CC1 | 4.35 µM (inactive)
9 | O=C(Nc1ccc(-c2nc3ccccc3o2)cc1)c1ccc(N2CCOCC2)c([N+](=O)[O-])c1 | 3.54 µM
10 | COC(=O)c1ccc2c(c1)C(C)(C)C(/C=C/c1ccccc1O)=[N+]2C | > 10 µM (inactive)
11 | COc1ccc(/C=C2\SC(=S)N(CCCC(=O)Nc3ccc(O)cc3)C2=O)cc1 | < 0.16 µM
12 | Nc1cc(Cl)c2nonc2c1[N+](=O)[O-] | 5.89 µM (inactive)
13 | O=C(C1=C(c2ccccc2)C(=O)c2ccccc2C1=O)c1ccccc1 | 4.73 µM
14 | COc1ccc(-c2[nH]ncc2N=Nc2cc(C)cc(C)c2)cc1 | 9.27 µM (inactive)
15 | COC(=O)C(O)(c1ccc(NC(=S)NC(=O)c2ccc(Cl)cc2Cl)c(C)c1)C(F)(F)F (stereo not given) | 9.05 µM (inactive)
16 | Cc1ccc2[nH]c3c(c2c1)CN(C(=O)CN1CCN(c2cccc(C)c2C)CC1)CC3 | 8.33 µM (inactive)
17 | O=C(CSC1c2ccccc2-c2ccccc21)N/N=C/c1ccccc1O | > 10 µM (inactive)
18 | O=C1C=CC(O)(c2cc(=O)c3c(O)cc(O)cc3o2)C=C1 | 2.58 µM
19 | C=C1C(=O)O[C@@H]2C[C@@H](C)[C@@H]3C4OC4C(=O)[C@@]3(C)[C@@H](O)[C@H]12 (stereo not given in full) | 9.5 µM (inactive)
20 | Cc1ccc(NC(=O)NC(=O)CN2C(=O)NC3(CCCCCCC3)C2=O)c(C)c1 | 9.53 µM (inactive)
21 | Clc1ccc2c(N/N=C/c3ccc(Br)cc3)ccnc2c1 | 9.92 µM (inactive)
22 | CCCCC(CC)Cn1c(N)c(C#N)c2nc3ccccc3nc21 (stereo not given) | 3.98 µM
23 | O=S1(=O)C=C(Sc2nnc(-c3ccccc3)o2)c2ccccc21 | 4.34 µM
24 | CCn1c(=O)c(C(=O)Nc2nc3ccccc3[nH]2)c(O)c2ccccc21 | 5.84 µM (inactive)

Row | SMILES | IC50
25 | CC(C)(C)c1ccc(-c2n[nH]c(=S)n2C2CCCC2)cc1 | 7.55 µM (inactive)
26 | CC(C)C[C@H](NC(=O)c1[nH]cnc1C(=O)N[C@@H](C)C(=O)OC(C)(C)C)C(=O)OC(C)(C)C | 3.69 µM (inactive)
27 | C=CCn1c(SCC(=O)c2[nH]c(C)c(C(=O)OC)c2C)nc2scc(-c3ccc(OC)c(OC)c3)c2c1=O | 6.22 µM (inactive)
28 | Cc1ccc(-n2c(=O)[nH]c3c(C(N)=O)nc(-c4ccc(C)o4)nc32)cc1 | > 10 µM (inactive)
29 | COC(=O)C(Nc1ccccc1Cl)(c1cc(C)c(O)c(C)c1)C(F)(F)F (stereo not given) | 9.66 µM (inactive)
30 | Cc1cc(/C=N/Nc2nc(N)ncc2[N+](=O)[O-])c(C)n1-c1cccc(C(F)(F)F)c1 | 9.14 µM (inactive)
31 | CCCCn1c(/N=C/c2c[nH]c3ccccc23)nc2ccccc21 | 6.06 µM (inactive)
32 | O/N=C(\c1ccc(Cl)cc1Cl)c1ncc(C(F)(F)F)cc1Cl | 2.2 µM (inactive)
33 | Cc1[nH]c2ccccc2c1/C=N/NC(=O)C1CC1(c1ccccc1)c1ccccc1 (stereo not given) | > 10 µM (inactive)
34 | CC1CCN(C(=O)/C(=C/c2ccccc2Cl)c2ccccc2)CC1 | 3.83 µM (inactive)
35 | Nc1cc(Cl)ccc1Oc1ccc(Cl)cc1 | 4.67 µM (inactive)
36 | COc1cccc(-c2nnc(NC(=O)c3ccc(S(=O)(=O)N(CC(C)C)CC(C)C)cc3)o2)c1 | 4.13 µM
37 | O=C(Nc1ccc(Cl)c(C(F)(F)F)c1)NC1CC2CCCC(C1)N2Cc1ccccc1 (stereo not given) | 7.84 µM (inactive)
38 | Cn1c2ccccc2c(=O)c2c(=O)n(C3CCCCCC3)c(C3CCCCC3)nc21 | 9.65 µM (inactive)
39 | COc1ccc(N=CC2=C(O)c3ccccc3C2=O)c(OC)c1 | 6.53 µM (inactive)
40 | COc1ccc(NC(=O)c2cc(-c3cc(C)cc(C)c3O)n[nH]2)cc1Cl | 8.79 µM (inactive)
41 | COc1ccccc1NCC(O)COc1ccc(C(C)(C)C)cc1 (stereo not given) | 9.32 µM (inactive)
42 | CCCOc1ccc(N2C(=O)CC(SC(=NC)Nc3ccc(F)cc3)C2=O)cc1 (stereo not given) | > 10 µM (inactive)
43 | CC(C)(C)C(=O)NC(NC(=S)Nc1sc2c(c1C#N)CCCC2)C(Cl)(Cl)Cl (stereo not given) | > 10 µM (inactive)
44 | Cc1ccc(NC(=O)c2cc3ccccc3oc2=O)cc1S(=O)(=O)N(C)C | < 0.16 µM
45 | CC(C)C[C@H](NC(=O)OC(C)(C)C)c1nnc(SCC(=O)Nc2ccc(Br)cc2)o1 | 5.57 µM (inactive)
46 | O=C(/C=C/c1cccc([N+](=O)[O-])c1)n1cnc2ccccc21 | 5.36 µM (inactive)
47 | Cc1cc(C)cc(NC(=O)/C(C#N)=C/c2cn(CC(=O)NCc3ccco3)c3ccccc23)c1 | 1.17 µM
48 | O=C(Nc1cccc(Cl)c1)Nc1ccnc(-c2cccnc2)n1 | > 10 µM (inactive)

Row | SMILES | IC50
49 | CCC(C)c1ccc(O)c(NC(=O)c2cncc(Br)c2)c1 (stereo not given) | 6.67 µM (inactive)
50 | N=c1n(Cc2ccccc2)c2ccccc2n1CC(O)COc1ccc(Cl)cc1Cl (stereo not given) | 6.92 µM (inactive)
51 | CCCc1cc(C(=O)Cc2ccc(F)cc2)c(O)cc1O | 5.98 µM (inactive)
52 | CNc1nc(Sc2cccc(C(F)(F)F)c2)cc(C(F)(F)F)n1 | > 10 µM (inactive)
53 | CCCCCc1c(C)nc(Nc2ccccc2)[nH]c1=O | 9.72 µM (inactive)
54 | CCCCCCn1c(N2CCC(C)CC2)nc2c1c(=O)[nH]c(=O)n2C | 5.4 µM (inactive)
55 | CCN(CC)CCn1c(SCC(=O)Nc2ccc(F)cc2)nc2c(sc3ccccc32)c1=O | > 10 µM (inactive)
56 | CC1CCN(c2nc3ccc(C(=O)O)cc3s2)CC1 | 0.71 µM
57 | CC1=CC(C)(C)N2C(=O)C3(SCC(=O)N3c3ccc(F)cc3)c3cc(C)cc1c32 (stereo not given) | > 10 µM (inactive)
58 | Cc1cc(Nc2cccc([N+](=O)[O-])c2)n2c(nc3ccccc32)c1C#N | 4.08 µM (inactive)
59 | CC(=O)/C=C/n1c(=S)oc2ccccc21 | 4.65 µM
60 | CCC(C)(C)c1ccc(Oc2ccc(N)cc2)cc1 | < 0.16 µM
61 | O=C(/C=C\c1cn(-c2ccccc2)nc1-c1ccccc1)Nc1nccs1 | 6.03 µM (inactive)
62 | Cc1cc(C)c(S(=O)(=O)NCCn2c(C)cc3ccccc32)c(C)c1 | 9.61 µM (inactive)
63 | Cc1ccc(NC(=O)CSc2nc3ccccc3c3nc(CCc4c(C)n[nH]c4C)nn23)cc1F | 9.71 µM (inactive)
64 | CCCCCC1CC(CC(=O)Nc2ccc([N+](=O)[O-])cc2)C(=O)O1 (stereo not given) | 9.17 µM (inactive)
65 | Cn1c(=O)[nH]c(=O)c2[nH]c(N(Cc3ccccc3)Cc3ccccc3)nc21 | 6.18 µM (inactive)
66 | C=C1C(=O)C=C2CN(C(=O)c3ccccc3)[C@@](Cc3ccc(F)cc3)(C(=O)OC)[C@@H]12 | 1.16 µM
67 | CC1=C(C)/C(=N\OS(=O)(=O)c2ccccc2)C=CC1=O | 2.13 µM
68 | O=C1C(Cl)=C(N2CCCCC2)C(=O)C(Cl)=C1c1cnc(N2CCCCC2)s1 | 9.7 µM (inactive)
69 | CCCOc1ccc(N2C(=O)CC(SC(=NCC)Nc3cccc(F)c3)C2=O)cc1 (stereo not given) | 8.9 µM (inactive)
70 | O=C1c2ccccc2-c2onc3ccc(Oc4ccccc4)c1c23 | 9.64 µM (inactive)
